Data reported in patent publication US20130267494A1, “1,4-OXAZEPANE DERIVATIVES” (priority 2010, published 2013).
Where a name gives a salt, the structure may show the parent alone. Read-outs that look alike come from different tables or passages of the source.

How the values were obtained:
Type in all cases: cell-based
[1] = molecular target: T1, human dopamine transporter (Homo sapiens, UniProt Q01959); experiment: Inhibitory action on human dopamine transporter ([3H]-dopamine uptake in CHO cells); settings: compound 1 μM, relative to inhibitory activity of 100 μM Nomifensine as 100%; for inhibition at 1 µM: CHO, read-out: inhibitory rate (%)
T1 construct: expressed in transfected cells
Outline: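 CHO-K1 cells stably expressing human dopamine transporter, exposed to compound at 10 μM or 1 μM in HEPES-buffered saline with 0.5% BSA. [3H]-dopamine uptake measured over 60 min by scintillation counting. Activity expressed relative to 100 μM nomifensine as 100%.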

[2] = molecular target: T2, human serotonin transporter (Homo sapiens, UniProt P31645); experiment: Inhibitory action on human serotonin transporter ([3H]-5-hydroxytryptamine uptake in CHO cells); settings: compound 1 μM, relative to inhibitory activity of 10 μM Paroxetine as 100%; for inhibition at 1 µM: CHO, read-out: inhibitory rate (%)
T2 construct: expressed in transfected cells
Outline: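 CHO-K1 cells stably expressing human SERT, plated overnight, took up [3H]-5-HT (diluted to 200 nM before a 1:10 addition) for 20 min in HEPES-buffered saline with glucose and 0.5% BSA; radioactivity counted by scintillation. Compounds at 10 μM or 1 μM, activity expressed relative to 10 μM paroxetine set as 100%.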

[3] = molecular target: T3, human norepinephrine transporter (Homo sapiens, UniProt P23975); experiment: Inhibitory action on human norepinephrine transporter ([3H]-norepinephrine uptake in CHO cells); settings: relative to inhibitory activity of 10 μM DMI as 100%; for inhibition at 1 µM: CHO
T3 construct: expressed in transfected cells
Outline: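 Stably transfected CHO-K1 cells plated overnight, then given test compound and [3H]-norepinephrine (20 nM final, from 200 nM) in HEPES-buffered saline with 0.5% BSA for 45 min. After PBS washes, retained radioactivity counted by scintillation. Inhibition at 10 μM or 1 μM compound expressed relative to 10 μM DMI as 100%.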

[4] = compound 1 μM, read-out: inhibitory rate (%)
[5] = read-out: inhibitory rate (%), compound 1 μM

T1 sequence (Q01959 whole entry): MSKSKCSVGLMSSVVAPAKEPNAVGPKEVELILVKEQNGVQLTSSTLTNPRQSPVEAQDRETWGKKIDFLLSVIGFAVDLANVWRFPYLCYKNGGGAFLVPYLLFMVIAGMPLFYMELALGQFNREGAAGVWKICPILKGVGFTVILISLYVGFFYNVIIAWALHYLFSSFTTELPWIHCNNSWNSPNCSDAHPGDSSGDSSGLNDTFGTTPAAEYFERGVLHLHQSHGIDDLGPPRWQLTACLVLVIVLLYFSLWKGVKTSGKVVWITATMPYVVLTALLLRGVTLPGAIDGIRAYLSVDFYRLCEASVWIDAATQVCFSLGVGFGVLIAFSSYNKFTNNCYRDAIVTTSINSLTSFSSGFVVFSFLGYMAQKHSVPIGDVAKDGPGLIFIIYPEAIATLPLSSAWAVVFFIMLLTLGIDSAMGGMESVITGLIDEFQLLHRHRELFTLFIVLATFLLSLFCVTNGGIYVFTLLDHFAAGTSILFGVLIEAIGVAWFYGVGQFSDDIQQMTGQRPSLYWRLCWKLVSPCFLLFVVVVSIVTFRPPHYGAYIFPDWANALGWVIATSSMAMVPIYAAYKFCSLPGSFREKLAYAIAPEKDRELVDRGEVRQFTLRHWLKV
T3 sequence (P23975 whole entry): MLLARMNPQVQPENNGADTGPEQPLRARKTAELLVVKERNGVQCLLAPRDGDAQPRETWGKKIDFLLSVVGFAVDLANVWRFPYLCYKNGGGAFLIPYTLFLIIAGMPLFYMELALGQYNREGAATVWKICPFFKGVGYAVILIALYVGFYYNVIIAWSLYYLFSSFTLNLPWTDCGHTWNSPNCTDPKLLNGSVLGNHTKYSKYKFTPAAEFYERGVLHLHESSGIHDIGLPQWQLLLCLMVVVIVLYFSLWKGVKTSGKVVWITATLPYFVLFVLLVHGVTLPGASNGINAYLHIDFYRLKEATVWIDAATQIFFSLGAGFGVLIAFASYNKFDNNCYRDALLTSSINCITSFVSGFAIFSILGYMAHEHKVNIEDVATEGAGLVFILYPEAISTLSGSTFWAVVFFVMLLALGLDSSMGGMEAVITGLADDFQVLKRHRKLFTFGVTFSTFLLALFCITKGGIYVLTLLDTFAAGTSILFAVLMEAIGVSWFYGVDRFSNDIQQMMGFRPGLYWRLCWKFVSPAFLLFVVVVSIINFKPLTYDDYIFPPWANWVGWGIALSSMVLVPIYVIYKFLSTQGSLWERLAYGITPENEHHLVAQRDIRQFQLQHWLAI
T2 sequence (P31645 whole entry): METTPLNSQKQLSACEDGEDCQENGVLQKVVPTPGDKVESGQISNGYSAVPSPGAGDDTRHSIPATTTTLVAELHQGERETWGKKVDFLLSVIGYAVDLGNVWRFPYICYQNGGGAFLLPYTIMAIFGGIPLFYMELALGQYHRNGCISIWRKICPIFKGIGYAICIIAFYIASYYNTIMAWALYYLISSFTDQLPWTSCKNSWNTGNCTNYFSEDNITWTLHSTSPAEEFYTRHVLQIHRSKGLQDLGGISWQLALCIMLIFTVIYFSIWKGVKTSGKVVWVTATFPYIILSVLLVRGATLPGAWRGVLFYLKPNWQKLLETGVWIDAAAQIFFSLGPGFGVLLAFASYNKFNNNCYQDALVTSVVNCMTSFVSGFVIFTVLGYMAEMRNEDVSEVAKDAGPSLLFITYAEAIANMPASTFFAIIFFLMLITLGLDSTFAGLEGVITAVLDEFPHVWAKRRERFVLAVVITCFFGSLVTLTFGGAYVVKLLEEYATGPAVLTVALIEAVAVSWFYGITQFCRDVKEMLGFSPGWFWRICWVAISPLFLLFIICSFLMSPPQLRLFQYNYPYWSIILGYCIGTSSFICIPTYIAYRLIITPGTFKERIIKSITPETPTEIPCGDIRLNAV

| inhibition at 1 µM [1] [%] | inhibition at 1 µM [2] [%] | inhibition at 1 µM [3, 4] [%] | inhibitory rate (%) [1] [%] | inhibitory rate (%) [2] [%] | inhibitory rate (%) ([3]; compound 1 μM) | SMILES | inhibition at 1 µM [3, 5] [%] |
| --- | --- | --- | --- | --- | --- | --- | --- |
|  |  |  | 19 | 91 | 98 | Cc1cc(C2OCCNCC2CO)ccc1Cl (stereo not drawn) [Example 402, [(6R*,7S*)-7-(4-chloro-3-methylphenyl)-1,4-oxazepan-6-yl]methanol monohydrochloride (retention time long)] |  |
| 12 | 71 | 100 |  |  |  | Cc1ccc(C2OCCNCC2CO)cc1Cl (stereo not drawn) [Example 405, [(6R*,7S*)-7-(3-chloro-4-methylphenyl)-1,4-oxazepan-6-yl]methanol monohydrochloride (retention time short)] |  |
|  |  |  | 22 | 82 | 98 | Cc1ccc(C2OCCNCC2CO)cc1Cl (stereo not drawn) [Example 406, [(6R*,7S*)-7-(3-chloro-4-methylphenyl)-1,4-oxazepan-6-yl]methanol monohydrochloride (retention time long)] |  |
| 18 | 85 | 100 |  |  |  | OCCOC[C@@]1(c2ccc(Cl)c(Cl)c2)CCNCCO1 [Example 416, 2-{[(7S)-7-(3,4-dichlorophenyl)-1,4-oxazepan-7-yl]methoxy}ethanol monohydrochloride] |  |
| 17 | 92 | 102 |  |  |  | OCC(O)COC[C@@]1(c2ccc(Cl)c(Cl)c2)CCNCCO1 (stereo partly drawn) [Example 417, 3-{[(7S)-7-(3,4-dichlorophenyl)-1,4-oxazepan-7-yl]methoxy}propane-1,2-diol monohydrochloride] |  |
| 10 | 84 | 97 |  |  |  | CS(=O)(=O)NC[C@@]1(c2ccc(Cl)c(Cl)c2)CCNCCO1 [Example 432, N-{[(7S)-7-(3,4-dichlorophenyl)-1,4-oxazepan-7-yl]methyl}methanesulfonamide monohydrochloride] |  |
| 6 | 81 | 97 |  |  |  | O=C1CNC(=O)N1C[C@]1(c2ccc(Cl)c(Cl)c2)CCNCCO1 [Example 438, 3-{[(7R)-7-(3,4-dichlorophenyl)-1,4-oxazepan-7-yl]methyl}imidazolidine-2,4-dione monohydrochloride] |  |
| 7 | 74 | 98 |  |  |  | O=C1CNC(=O)N1C[C@@]1(c2ccc(Cl)c(Cl)c2)CCNCCO1 [Example 439, 3-{[(7S)-7-(3,4-dichlorophenyl)-1,4-oxazepan-7-yl]methyl}imidazolidine-2,4-dione monohydrochloride] |  |
| 10 |  | 105 |  | 93 |  | OCC1CNCCOC1c1ccc(Cl)c(F)c1 (stereo not drawn) [Example 440, [(6R*,7R*)-7-(4-chloro-3-fluorophenyl)-1,4-oxazepan-6-yl]methanol monohydrochloride (retention time short)] |  |
|  |  |  | 6 | 51 | 103 | OCC1CNCCOC1c1ccc(Cl)c(F)c1 (stereo not drawn) [Example 441, [(6R*,7R*)-7-(4-chloro-3-fluorophenyl)-1,4-oxazepan-6-yl]methanol monohydrochloride (retention time long)] |  |
| 51 | 42 | 99 |  |  |  | OC[C@H]1OCCNC[C@H]1c1ccc(Cl)c(Cl)c1 [Example 447, [(6R,7S)-6-(3,4-dichlorophenyl)-1,4-oxazepan-7-yl]methanol monohydrochloride] |  |
| 7 | 28 | 88 |  |  |  | OC[C@@H]1OCCNC[C@@H]1c1ccc(Cl)c(Cl)c1 [Example 448, [(6S,7R)-6-(3,4-dichlorophenyl)-1,4-oxazepan-7-yl]methanol monohydrochloride] |  |
| 99 | 41 | 104 |  |  |  | CC(=O)NC[C@H]1OCCNC[C@H]1c1ccc(Cl)c(Cl)c1 [Example 453, N-{[(6R,7S)-6-(3,4-dichlorophenyl)-1,4-oxazepan-7-yl]methyl}acetamide monohydrochloride] |  |

More lines, now with the values behind:

| SMILES | inhibition at 1 µM [1] [%] | inhibition at 1 µM [2] [%] | inhibition at 1 µM [3, 4] [%] | inhibitory rate (%) [1] [%] | inhibitory rate (%) [2] [%] | inhibitory rate (%) ([3]; compound 1 μM) | inhibition at 1 µM [3, 5] [%] |
| --- | --- | --- | --- | --- | --- | --- | --- |
| CS(=O)(=O)N[C@H]1CNCCO[C@@H]1c1ccc(Cl)c(Cl)c1 [Example 266, N-[(6S,7R)-7-(3,4-dichlorophenyl)-1,4-oxazepan-yl]methanesulfonamide monohydrochloride] | 76 | 82 | 103 |  |  |  |  |
| O=C1CN([C@@H]2CNCCO[C@H]2c2ccc(Cl)c(Cl)c2)C(=O)N1 [Example 276, 1-[(6R,7S)-7-(3,4-dichlorophenyl)-1,4-oxazepan-6-yl]imidazolidine-2,4-dione monohydrochloride] | 94 | 87 | 103 |  |  |  |  |
| OC[C@@H]1CNCCO[C@H]1c1ccc(F)c(Cl)c1 [Example 284, [(6S,7R)-7-(3-chloro-4-fluorophenyl)-1,4-oxazepan-6-yl]methanol monofumarate] | 11 | 34 |  |  |  |  | 96 |
| OC[C@H]1CNCCO[C@@H]1c1ccc(F)c(Cl)c1 [Example 285, [(6R,7S)-7-(3-chloro-4-fluorophenyl)-1,4-oxazepan-6-yl]methanol 0.5 fumarate] | 19 | 79 | 94 |  |  |  |  |
| OC[C@@H]1CNCCO[C@H]1c1ccc(Cl)c(F)c1 [Example 301, [(6S,7R)-7-(4-chloro-3-fluorophenyl)-1,4-oxazepan-6-yl]methanol monohydrochloride] | 10 | 52 | 100 |  |  |  |  |
| OC[C@H]1CNCCO[C@@H]1c1ccc(Cl)c(F)c1 [Example 302, [(6R,7S)-7-(4-chloro-3-fluorophenyl)-1,4-oxazepan-6-yl]methanol monohydrochloride] | 12 | 73 | 98 |  |  |  |  |
| O=C(CC(F)(F)F)NC[C@@H]1CNCCO[C@H]1c1ccc(Cl)c(F)c1 [Example 314, N-{[(6S,7R)-7-(4-chloro-3-fluorophenyl)-1,4-oxazepan-6-yl]methyl}-3,3,3-trifluoropropanamide monohydrochloride] | 11 | 49 | 104 |  |  |  |  |
| O=C(CO)NC[C@@H]1CNCCO[C@H]1c1ccc(Cl)c(F)c1 [Example 315, N-{[(6S,7R)-7-(4-chloro-3-fluorophenyl)-1,4-oxazepan-6-yl]methyl}-2-hydroxyacetamide monohydrochloride] | 13 | 43 | 105 |  |  |  |  |
| O=C(NC[C@@H]1CNCCO[C@H]1c1ccc(Cl)c(F)c1)c1cc(-c2noc(=O)[nH]2)ccc1F [Example 357, N-{[(6S,7R)-7-(4-chloro-3-fluorophenyl)-1,4-oxazepan-6-yl]methyl}-2-fluoro-5-(5-oxo-4,5-dihydro-1,2,4-oxadiazol-3-yl)benzamide monohydrochloride] | 19 | 102 | 103 |  |  |  |  |
| O=C(NC[C@@H]1CNCCO[C@H]1c1ccc(Cl)c(F)c1)c1ccc[nH]c1=O [Example 367, N-{[(6S,7R)-7-(4-chloro-3-fluorophenyl)-1,4-oxazepan-6-yl]methyl}-2-oxo-1,2-dihydropyridine-3-carboxamide monohydrochloride] | 57 | 99 | 103 |  |  |  |  |
| O=C1NCCCN1C[C@@H]1CNCCO[C@H]1c1ccc(Cl)c(F)c1 [Example 372, 1-{[(6S,7R)-7-(4-chloro-3-fluorophenyl)-1,4-oxazepan-6-yl]methyl}tetrahydropyrimidin-2(1H)-one monohydrochloride] | 97 | 98 |  |  |  |  | 103 |
| O=C1CCCCN1C[C@@H]1CNCCO[C@H]1c1ccc(Cl)c(F)c1 [Example 376, 1-{[(6S,7R)-7-(4-chloro-3-fluorophenyl)-1,4-oxazepan-6-yl]methyl}piperidin-2-one monohydrochloride] | 89 | 98 | 102 |  |  |  |  |
| O=c1[nH]nc(-c2cccn(C[C@@H]3CNCCO[C@H]3c3ccc(Cl)c(F)c3)c2=O)[nH]1 [Example 379, 1-{[(6S,7R)-7-(4-chloro-3-fluorophenyl)-1,4-oxazepan-6-yl]methyl}-3-(5-oxo-4,5-dihydro-1H-1,2,4-triazol-3-yl)pyridin-2(1H)-one monohydrochloride] | 64 | 95 | 102 |  |  |  |  |
| Cc1cc(C2OCCNCC2CO)ccc1Cl (stereo not drawn) [Example 401, [(6R*,7S*)-7-(4-chloro-3-methylphenyl)-1,4-oxazepan-6-yl]methanol monohydrochloride (retention time short)] | 17 | 75 | 100 |  |  |  |  |
